Assay results reported in patent publication US8894993B2, “Mitochondria-targeted antioxidants” (Natreon Inc., priority 2006, dated 2014).

Experiments:
[1] = test system: stress-induced lipid peroxidation of mouse brain; test: Stress-induced lipid peroxidation of mouse brain (thiobarbituric acid reaction); type: in vivo, Swiss albino mice; settings: oral each 5 mg/Kg b.w. per day for 5 days, hypoxic stress, control 1.169
Protocol: Swiss albino mice (20±g) were fed orally with—(a) 3,8-(OH)2-DBP; (b) CoQ10; (c) a combination of 3,8-(OH)2-DBP and CoQ10 and (d) 3,8-(OH)2-DBP and CoQ10 in a clathrated form with fusoms (each 5 mg/Kg b.w.), per day, for 5 days. The animals were subjected to hypoxic stress for 1 hour each day for 3 days from the 3rd day of the experiment. After the stipulated time-period, brain and liver of the animals were collected and mitochondria from the liver were separated as described previously (Liu Y, Deng F, Zhao R and Qu S, Chemosphere, 40(8):851-854, 2000). Lipid peroxidation in brain and liver-mitochondria was estimated by the method of Ohkawa et al. (Ohkawa H, Ohishi N and Yagi K, Assay for lipid peroxides in animal tissues by thiobarbituric acid reaction. Anal. Biochem., 95:351-358, 1979).

[2] = Stability of reduced CoQ10 (CoQH2) by 3,8-(OH)2-DBP at different pH, HPLC; type: physicochemical
[3] = test system: Catalase activity in liver; test: Catalase activity in liver of mice after restraint stress; type: in vivo, Swiss albino mice; settings: 25 mg/Kg p.o. 7 days, control 3.9
Protocol: (§1) Swiss albino mice (20±2 g) were fed orally with—(a) 3-OH-DBP and (b) 3,8-(OH)2-DBP (each 25 mg/Kg b.w. per day, for 7 days). In case of the controls, only vehicle (0.8% carboxymethyl cellulose in water) was administered for seven days of the experiment. All the animals of all the groups were subjected to restraint stress (for 60 minutes) on the seventh day of the experiment, 2 hours after drug administration, according to a published method [Figueiredo, H. F., Bodie, B. L., Tauchi, M., Dolgas, C. M. and Herman, J. P. 2003. Endocrinology, 144, 5249-5258]. The model was selected in the present experiment, because restraint stress is a widely used model of acute oxidative stress. Immediately after being exposed to stress, the animals were sacrificed, blood was collected for analysis by HPLC of ATP and related nucleotides [Smolenska, Z., Kaznowska, Z., Zarowny, D., Simmonds, H. A. and Smolenski, R. T. 1999. […] AEC (adenylate energy charge) was calculated according to the method of Atkinson and Walton [Atkinson D E & Walton G M, Adenosine triphosphate conservation in metabolic regulation, J Biol Chem, 242 (1967) 3239] and TAN (total adenine nucleotides) was calculated according to an established method [Spencer M K & Katz A, Role of glycogen in control of glycolysis and IMP formation in human muscle during exercise, Am J Physiol, 260 (1991) E859]. […]

[4] = test system: Superoxide dismutase (SOD) activity in liver; test: Superoxide dismutase activity in liver of mice after restraint stress; type: in vivo, Swiss albino mice; settings: 25 mg/Kg p.o. 7 days, control 0.6
Protocol: as §1

[5] = test system: Blood levels of ATP and energy related indices; test: Blood ATP and energy related indices in mice after restraint stress; type: in vivo, Swiss albino mice; settings: 25 mg/Kg p.o. 7 days
Protocol: Swiss albino mice (20±2 g) were fed orally with—(a) 3-OH-DBP and (b) 3,8-(OH)2-DBP (each 25 mg/Kg b.w. per day, for 7 days). In case of the controls, only vehicle (0.8% carboxymethyl cellulose in water) was administered for seven days of the experiment. All the animals of all the groups were subjected to restraint stress (for 60 minutes) on the seventh day of the experiment, 2 hours after drug administration, according to a published method [Figueiredo, H. F., Bodie, B. L., Tauchi, M., Dolgas, C. M. and Herman, J. P. 2003. Endocrinology, 144, 5249-5258]. The model was selected in the present experiment, because restraint stress is a widely used model of acute oxidative stress. Immediately after being exposed to stress, the animals were sacrificed, blood was collected for analysis by HPLC of ATP and related nucleotides [Smolenska, Z., Kaznowska, Z., Zarowny, D., Simmonds, H. A. and Smolenski, R. T. 1999. Rheumatology, 38, 997-1002; Komarova, S. V., Mosharov, E. V., Vitvitsky, V. M. and Ataullakhanov, F. I. 1999. Blood Cell Mol. Dis., 25(13), 170-179; Marquardt, D. L., Gruber, H. E. and Wasserman, S. I. 1984. Proc. Natl. Acad. Sci., 81, 6192-6196], and liver was collected for measurement of superoxide dismutase and catalase activities [Zielinski, S, and Pörtner, H. 2000. Comparative Biochem. Physiol. Part B, 125, 147-[60]. AEC (adenylate energy charge) was calculated according to the method of Atkinson and Walton [Atkinson D E & Walton G M, Adenosine triphosphate conservation in metabolic regulation, J Biol Chem, 242 (1967) 3239] and TAN (total adenine nucleotides) was calculated according to an established method [Spencer M K & Katz A, Role of glycogen in control of glycolysis and IMP formation in human muscle during exercise, Am J Physiol, 260 (1991) E859].

[6] = Inhibition of CoQ-CoQH2 aberrant metabolite formation during red-ox recycling, HPLC; type: physicochemical; settings: in vitro
Protocol: Methanolic solution of coenzyme Q10 (1 mg/ml) was reduced by NaBH4 to pH 8 when the yellow solution became colorless. About 1 mg of 3,8-(OH)2-DBP was added to the solution and the mixture was analyzed by HPLC at different time intervals (0-80 min). A control CoQ10, without 3,8-(OH)2-DBP, was prepared similarly and analyzed at different time intervals (0-80 min).
Column—NovaPak RP C18 [250×4 mm]
Mobile phase—Methanol:Acetonitrile:Ethanol 30:30:40
Detection—PDA 275 nm for CoQ10
Reduced CoQ10 (CoQH2) has a tendency to rapidly autoxidize in the presence of air. […] The aberrant metabolites increased rapidly with time (Table 10).

Q: Which results are given for O=c1oc2cc(O)ccc2c2ccc(O)cc12 [3,8-(OH)2-DBP, 3,8-dihydroxydibenzo-α-pyrone]?
A: OD Values at 532 nm (lipid peroxidation) [1]: 1.119; Regenerated CoQ10 in presence of 3,8-(OH)2-DBP ([2]; autoxidation of CoQH2, pH 8, 80 min): 151.28 µg/mL; Regenerated CoQ10 in presence of 3,8-(OH)2-DBP ([2]; autoxidation of CoQH2, pH 8, 100 min): 202.31 µg/mL; Catalase activity in liver [3]: 3.4 U/mg tissue; SOD activity in liver [4]: 0.98 U/gm tissue; ADP ([5]; mean ± SEM of 6, control 0.14 ± 0.02): 0.09 ± 0.01 µM; ATP ([5]; mean ± SEM of 6, control 0.67 ± 0.03): 0.64 ± 0.05 µM; TAN ([5]; mean ± SEM of 6, control 0.76 ± 0.03): 0.76 ± 0.06 µM; AEC ([5]; mean ± SEM of 6, control 0.89 ± 0.01): 0.90 ± 0.01; ATP/ADP ratio ([5]; mean ± SEM of 6, control 4.90 ± 0.32): 6.96 ± 0.49; aberrant metabolite formation of CoQH2 in the presence of 3,8-(OH)2-DBP, in words [6]: did not form any aberrant metabolite for a long time; Relative percentage of aberrant metabolites in presence of 3,8-(OH)2-DBP ([6]; pH 8, 0 minutes): 0%; Relative percentage of aberrant metabolites in presence of 3,8-(OH)2-DBP ([6]; pH 8, 40 minutes): 0%; Relative percentage of aberrant metabolites in presence of 3,8-(OH)2-DBP ([6]; pH 8, 80 minutes): 0%
